21 compounds from US11260049B2, “TRPV4 antagonists” (GlaxoSmithKline Intellectual Property (No. 2) Limited, priority 2016, dated 2022) can be followed below.

human TRPV4, sequence (Q9HBA0 whole entry): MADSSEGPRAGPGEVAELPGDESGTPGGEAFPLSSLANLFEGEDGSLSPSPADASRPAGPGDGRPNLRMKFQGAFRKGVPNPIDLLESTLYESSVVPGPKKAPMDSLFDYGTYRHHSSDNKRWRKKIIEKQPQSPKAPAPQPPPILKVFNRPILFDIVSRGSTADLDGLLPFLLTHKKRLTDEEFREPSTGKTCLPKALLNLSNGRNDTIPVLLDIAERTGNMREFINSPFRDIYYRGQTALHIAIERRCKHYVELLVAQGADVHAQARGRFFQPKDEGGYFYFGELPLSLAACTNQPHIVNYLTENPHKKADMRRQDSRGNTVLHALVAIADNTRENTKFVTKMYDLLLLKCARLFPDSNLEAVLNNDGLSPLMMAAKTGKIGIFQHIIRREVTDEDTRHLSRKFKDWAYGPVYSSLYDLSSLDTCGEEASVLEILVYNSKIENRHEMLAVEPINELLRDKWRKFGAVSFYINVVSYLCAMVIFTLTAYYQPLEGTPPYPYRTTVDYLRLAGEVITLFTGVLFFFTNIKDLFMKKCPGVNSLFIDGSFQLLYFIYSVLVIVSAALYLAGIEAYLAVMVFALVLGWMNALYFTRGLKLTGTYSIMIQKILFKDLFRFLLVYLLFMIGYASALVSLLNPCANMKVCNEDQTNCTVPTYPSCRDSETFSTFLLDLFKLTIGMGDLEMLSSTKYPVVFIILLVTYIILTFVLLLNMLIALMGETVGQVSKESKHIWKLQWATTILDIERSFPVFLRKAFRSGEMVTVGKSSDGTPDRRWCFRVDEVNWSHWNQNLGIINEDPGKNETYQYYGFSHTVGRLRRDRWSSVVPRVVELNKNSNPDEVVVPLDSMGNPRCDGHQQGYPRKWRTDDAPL

The first assay deals with human TRPV4 (Homo sapiens (Human), UniProt Q9HBA0). The experiment in a line: FLIPR assay for hTRPV4 expressed in BHK cells. The class given is cell-based. The conditions noted are these: at least one set of experimental runs; TRPV4 FLIPR assay; read-out: average IC50. As for the experimental part: FLIPR Assay for hTRPV4 Expressed in BHK Cells:
TRPV4 channel activation results in an influx of divalent and monovalent cations including calcium. The resulting changes in intracellular calcium were monitored using a calcium specific fluorescent dye Fluo-4 (MDS Analytical Technologies). BHK/AC9 cells transduced with BacMam virus expressing the human TRPV4 gene at a MOI of 78 were plated in a 384 well poly-D lysine coated plate (15,000 cells/well in 50 μL culture medium containing DMEM/F12 with 15 mM HEPES, 10% FBS, 1% Penicillin-Streptomycin and 1% L-glutamine). Cells were incubated for 24 hours at 37° C. and 5% CO2. Culture medium was then aspirated using a Tecan plate-washer and replaced with 20 μL/well of dye loading buffer: HBSS, 500 μM Brilliant Black (MDS Analytical Technologies), and 2 μM Fluo-4 AM. Dye loaded plates were then incubated in the dark at room temperature for 1˜1.5 hours.
In the case of `N#Cc1ccc(S(=O)(=O)[C@H]2CN(S(=O)(=O)c3ccc(F)cc3Br)C[C@@]2(O)CO)cc1` [Example 22, 4-(((3S,4R)-1-((2-bromo-4-fluorophenyl)sulfonyl)-4-hydroxy-4-(hydroxymethyl)pyrrolidin-3-yl)sulfonyl)benzonitrile], the 50% inhibitory concentration (IC50) was determined as 13 nM.

The assay is the same for the next values; noted with them: inhibition of Agonist Compound (EC80)-induced calcium signal; BHK/AC9 cells expressing human TRPV4; read-out: IC50.
As for `N#Cc1ccc(S(=O)(=O)[C@H]2CN(S(=O)(=O)c3ccc(Cl)cc3Cl)C[C@@]2(O)CO)cc1` [Example 82, 4-(((3S,4R)-1-((2,4-dichlorophenyl)sulfonyl)-4-hydroxy-4-(hydroxymethyl)pyrrolidin-3-yl)sulfonyl)benzonitrile], the IC50 lay within 0.1 to 10 nM.
The same measure, in the same setting: to `Cc1cc(C#N)ccc1S(=O)(=O)N1C[C@H](S(=O)(=O)c2ccc(Cl)cc2)[C@](O)(CO)C1` [Example 20, 4-(((3R,4S)-4-((4-chlorophenyl)sulfonyl)-3-hydroxy-3-(hydroxymethyl)pyrrolidin-1-yl)sulfonyl)-3-methylbenzonitrile] belongs 10 to 100 nM.
Still for that read-out and setting: to `O=S(=O)(c1ccc(Cl)cc1)[C@H]1CN(S(=O)(=O)c2ccc(Cl)cc2C(F)F)C[C@@]1(O)CO` [Example 65, (3R,4S)-1-((4-chloro-2-(difluoromethyl)phenyl)sulfonyl)-4-((4-chlorophenyl)sulfonyl)-3-(hydroxymethyl)pyrrolidin-3-ol] belongs 10 to 100 nM.
As to `N#Cc1ccc(S(=O)(=O)[C@H]2CN(S(=O)(=O)c3ccc(Br)cc3C(F)(F)F)C[C@@]2(O)CO)cc1` [Example 30, 4-(((3S,4R)-1-((4-bromo-2-(trifluoromethyl)phenyl)sulfonyl)-4-hydroxy-4-(hydroxymethyl)pyrrolidin-3-yl)sulfonyl)benzonitrile], the IC50 fell in the range of 0.1 to 10 nM.
On the same count and under the same terms, to `N#Cc1ccc(S(=O)(=O)[C@H]2CN(S(=O)(=O)c3ccc(F)cc3Cl)C[C@@]2(O)CO)cc1` [Example 62, 4-(((3S,4R)-1-((2-chloro-4-fluorophenyl)sulfonyl)-4-hydroxy-4-(hydroxymethyl)pyrrolidin-3-yl)sulfonyl)benzonitrile] belongs 10 to 100 nM; to `O=S(=O)(c1ccc(F)cc1)[C@H]1CN(S(=O)(=O)c2ccc(Cl)cc2Cl)C[C@@]1(O)CO` [Example 102, (3R,4S)-1-((2,4-dichlorophenyl)sulfonyl)-4-((4-fluorophenyl)sulfonyl)-3-(hydroxymethyl)pyrrolidin-3-ol], 10 to 100 nM.
Same read-out and setting: to `N#Cc1ccc(S(=O)(=O)[C@H]2CN(S(=O)(=O)c3ccc(Cl)cc3Cl)C[C@@]2(O)CO)cc1F` [Example 83, 4-(((3S,4R)-1-((2,4-dichlorophenyl)sulfonyl)-4-hydroxy-4-(hydroxymethyl)pyrrolidin-3-yl)sulfonyl)-2-fluorobenzonitrile] belongs 0.1 to 10 nM.
On to `O=S(=O)(c1ccc(Cl)c(Cl)c1)[C@H]1CN(S(=O)(=O)c2ccc(Cl)cc2Cl)C[C@]1(O)CO` [Example 115, (3S,4S)-1-((2,4-dichlorophenyl)sulfonyl)-4-((3,4-dichlorophenyl)sulfonyl)-3-(hydroxymethyl)pyrrolidin-3-ol], for which the concentration for half-maximal inhibition (IC50) fell in the range of 10 to 100 nM.
Still for that read-out and setting: to `N#Cc1ccc(S(=O)(=O)[C@H]2CN(S(=O)(=O)c3cc(F)c(Cl)cc3Cl)C[C@]2(O)CO)cc1F` [Example 9, 4-(((3S,4S)-1-((2,4-dichloro-5-fluorophenyl)sulfonyl)-4-hydroxy-4-(hydroxymethyl)pyrrolidin-3-yl)sulfonyl)-2-fluorobenzonitrile] belongs 10 to 100 nM.
On to `N#Cc1ccc(S(=O)(=O)N2C[C@H](S(=O)(=O)c3ncc(Cl)s3)[C@](O)(CO)C2)c(Cl)c1` [Example 73, 3-chloro-4-(((3R,4S)-4-((5-chlorothiazol-2-yl)sulfonyl)-3-hydroxy-3-(hydroxymethyl)pyrrolidin-1-yl)sulfonyl)benzonitrile], for which the IC50 is 10 to 100 nM.
Same read-out and setting: with `N#Cc1ccc(S(=O)(=O)N2C[C@H](S(=O)(=O)c3ccc(Cl)cc3)[C@@](O)(CN)C2)cc1` [Example 127, 4-(((3R,4S)-3-(aminomethyl)-4-((4-chlorophenyl)sulfonyl)-3-hydroxypyrrolidin-1-yl)sulfonyl)benzonitrile] the figure was 10 to 100 nM.
Still for that read-out and setting: with `COc1cc(C#N)ccc1S(=O)(=O)N1C[C@H](S(=O)(=O)c2ccc(C(F)(F)F)cc2)[C@](O)(CO)C1` [Example 56, 4-(((3R,4S)-3-hydroxy-3-(hydroxymethyl)-4-((4-(trifluoromethyl)phenyl)sulfonyl)pyrrolidin-1-yl)sulfonyl)-3-methoxybenzonitrile] the figure was 10 to 100 nM; with `N#Cc1c(F)cc(S(=O)(=O)[C@H]2CN(S(=O)(=O)c3ccc(C(F)(F)F)cc3Cl)C[C@@]2(O)CO)cc1F` [Example 91, 4-(((3S,4R)-1-((2-chloro-4-(trifluoromethyl)phenyl)sulfonyl)-4-hydroxy-4-(hydroxymethyl)pyrrolidin-3-yl)sulfonyl)-2,6-difluorobenzonitrile], 10 to 100 nM.
Still for that read-out and setting: with `N#Cc1ccc(S(=O)(=O)N2C[C@H](S(=O)(=O)c3ccc(Cl)cc3)[C@](O)(CO)C2)c(Br)c1` [Example 38, 3-bromo-4-(((3R,4S)-4-((4-chlorophenyl)sulfonyl)-3-hydroxy-3-(hydroxymethyl)pyrrolidin-1-yl)sulfonyl)benzonitrile] the figure was 0.1 to 10 nM; with `N#Cc1ccc(S(=O)(=O)[C@H]2CN(S(=O)(=O)c3ccc(C(F)(F)F)cc3Cl)C[C@]2(O)CO)cc1F` [Example 7, 4-(((3S,4S)-1-((2-chloro-4-(trifluoromethyl)phenyl)sulfonyl)-4-hydroxy-4-(hydroxymethyl)pyrrolidin-3-yl)sulfonyl)-2-fluorobenzonitrile], 10 to 100 nM.
Consider `N#Cc1ccc(S(=O)(=O)[C@H]2CN(S(=O)(=O)c3ccccc3Br)C[C@@]2(O)CO)cc1` [Example 33, 4-(((3S,4R)-1-((2-bromophenyl)sulfonyl)-4-hydroxy-4-(hydroxymethyl)pyrrolidin-3-yl)sulfonyl)benzonitrile], for which the IC50 lay within 10 to 100 nM.
With `N#Cc1ccc(S(=O)(=O)N2C[C@H](S(=O)(=O)c3ccc(C(F)(F)F)nc3)[C@](O)(CO)C2)c(C(F)(F)F)c1` [Example 27, 4-(((3R,4S)-3-hydroxy-3-(hydroxymethyl)-4-((6-(trifluoromethyl)pyridin-3-yl)sulfonyl)pyrrolidin-1-yl)sulfonyl)-3-(trifluoromethyl)benzonitrile], the IC50 lay within 10 to 100 nM.
The same measure, in the same setting: with `O=S(=O)(c1ccc(C(F)(F)F)nc1)[C@H]1CN(S(=O)(=O)c2ccc(Cl)cc2Cl)C[C@@]1(O)CO` [Example 118, (3R,4S)-1-((2,4-dichlorophenyl)sulfonyl)-3-(hydroxymethyl)-4-((6-(trifluoromethyl)pyridin-3-yl)sulfonyl)pyrrolidin-3-ol] the figure was 10 to 100 nM; with `N#Cc1cc(F)c(S(=O)(=O)[C@H]2CN(S(=O)(=O)c3ccc(Cl)cc3Cl)C[C@@]2(O)CO)cc1F` [Example 95, 4-(((3S,4R)-1-((2,4-dichlorophenyl)sulfonyl)-4-hydroxy-4-(hydroxymethyl)pyrrolidin-3-yl)sulfonyl)-2,5-difluorobenzonitrile], 10 to 100 nM; with `N#Cc1ccc(S(=O)(=O)[C@H]2CN(S(=O)(=O)c3ccc(F)cc3Br)C[C@@]2(O)CO)cc1` [Example 22, 4-(((3S,4R)-1-((2-bromo-4-fluorophenyl)sulfonyl)-4-hydroxy-4-(hydroxymethyl)pyrrolidin-3-yl)sulfonyl)benzonitrile], 10 to 100 nM.
Consider `N#Cc1ccc(S(=O)(=O)N2C[C@H](S(=O)(=O)c3ccc(C(F)(F)F)cc3)[C@](O)(CO)C2)c(C(F)F)c1` [Example 55, 3-(difluoromethyl)-4-(((3R,4S)-3-hydroxy-3-(hydroxymethyl)-4-((4-(trifluoromethyl)phenyl)sulfonyl)pyrrolidin-1-yl)sulfonyl)benzonitrile], for which the IC50 fell in the range of 0.1 to 10 nM.
